Drawing on US20240199600A1, “CONDENSED HETEROCYCLIC COMPOUND HAVING A SULFONAMIDE GROUP OR SALT THEREOF, AGRICULTURAL OR HORTICULTURAL INSECTICIDE OR ANIMAL ECTOPARASITE OR ENDOPARASITE CONTROL AGENT COMPRISING THE COMPOUND OR THE SALT THEREOF, AND METHOD FOR USING THE COMPOUND OR THE SALT THEREOF, THE INSECTICIDE, OR THE …” (NIHON NOHYAKU CO., LTD., priority 2021, published 2024), this text covers mortality for 1 compound.

The subject of one assay is Plutella xylostella. The experiment in a line: whole plant or invertebrate. To be noted: in Brassica rapa, 144 h, read-out: insecticidal efficacy (corrected mortality rate), activity level. As for the experimental part: Insecticidal test on Plutella xylostella
Adults of P. xylostella were released onto Chinese cabbage seedlings and allowed to lay eggs thereon. […] After air-dried, the seedlings were kept in a thermostatic chamber at 25° C. […] This test was conducted in triplicate using 10 adults of P. xviostella per plot.
Corrected mortality rate (%)100×(Number of hatched larvae in a non-treatment plot-Number of hatched larvae in a treatment plot)/Number of hatched larvae in a non-treatment plot [Math. 3]

For a further assay, the system named is Laodelphax striatelius. Put plainly: whole plant or invertebrate. To be noted: in Oryza sativa, 192 h, read-out: insecticidal efficacy (corrected mortality rate), activity level.

From the text for Laodelphax striatelius: Insecticidal test on Laodelphax striatelius
The sulfonamide group-containing condensed heterocyclic compounds represented by the general formula (1) of the present invention or salts thereof were separately dispersed in water and diluted to 500 ppm. Rice plant seedlings (variety: Nihonbare) were dipped in the agrochenrical dispersions for 30 seconds. After air-dried, each seedling was put into a separate glass test tube and inoculated with ten 3rd-instar larvae of L, striatellus, and then the glass test tubes were capped with cotton plugs. At 8 days after the inoculation, the numbers of surviving larvae and dead larvae were counted to determine the survival rate, the corrected mortality rate was calculated according to the formula shown below, and the insecticidal efficacy was evaluated according to the criteria shown below.

As usually defined, the mortality is the percentage killed. Take `CN(C)S(=O)(=O)c1cc(C2CC2)cnc1-c1nc2cc(SC(F)(F)F)ccc2o1` [Compound 4-6, 5-cyclopropyl-N,N-dimethyl-2-(5-trifluoromethylthiobenzoxazol-2-yl)pyridine-3-sulfonamide]: the mortality at 500 ppm in the assay on Plutella xylostella and in the assay on Laodelphax striatelius was 100% in each case.
